Data on one molecule can be found in patent publication US5905149A, “Substituted quinolymethylen-oxindole analogues as tyrosine kinase inhibitors” (Pharmacia & Upjohn S.p.A, priority 1996, dated 1999).

Assay [1] deals with p45 v-abl tyrosine kinase. Description: p45 v-abl kinase assay. It is filed as biochemical, Abelson murine leukemia virus. As to conditions: (Val^5)-angiotensin II phosphorylation; peptide 2 mM, ATP 50 μM; pH 8.0; 30° C.; triplicate; read-out: Inhibition of p45 v-abl kinase, IC50. On the procedure:
p45 v-abl kinase purification
The enzyme used in our tests is the p45 v-abl tyrosine kinase which represents the catalytic domain of the Abelson tyrosine kinase (isolated from the Abelson murine leukemia virus). The p45 v-abl kinase is produced and isolated as described by Wang et al. in J.Biol.Chem. 260, 64 (1985) and by Ferguson et al. in J. Biol. Chem. 260, 3652 (1985) and in Biochem. J. 257, 321 (1989).
(Val^5)-angiotensin II phosphorylation is performed, by incubation with 40 ng of purified abl-kinase and (γ-^32 P) ATP, in 50 μl of buffer containing Tris-HCl 25 mM, pH 8.0, MgCl2 10 mM and dithiothreitol 0.1 mM (kinase buffer). The reaction mixture is incubated for the indicated time at 30° C. and the reaction stopped by adding 50 μl of 5% trichloracetic acid. After a brief incubation on ice the tubes are centrifuged. The supernatants are spotted on phosphocellulose paper squares (Whatman P-81) and washed extensively in acetic acid. The radioactivity bound to dried phosphocellulose squares is measured in a liquid scintillation counter. IC50 values are calculated from triplicated determination of each experimental point. Each inhibitor is tested at concentrations ranging from […] in the presence of fixed concentrations of peptide (2 mM) and ATP (50 μM).

For assay [2], the system named is K562 cells, a human myelogenous leukemia cell line. Kind of assay: K562 cell growth inhibition assay. It is filed as cell-based. The following applies: 72 h, cell counting vs untreated control cells. As to the method:
K562 cell growth inhibition assay
K562 cells, a human myelogenous leukemia cell line, were seeded into a 24 wells tissue culture plate (Falcon 3047) (10000/well) in the presence of increasing concentrations of the compounds. After 72 h, cells were harvested and were counted using a cell counter (Coulter Counter-ZM). The percent of inhibition was evaluated in respect to the untreated control cells.

The IC50 is the point on the concentration scale where inhibition reaches its midpoint. `CCOC(=O)C(C)Oc1ccc(C=C2C(=O)Nc3ccccc32)c2cccnc12` (centres unmarked) [2-[5-(2-oxindol-3-ylidenemethyl)quinol-8-yloxy]propionic acid ethyl ester]: the IC50 in assay [1] was 15 µM; in assay [2], 39.5 µM.
